Laboratory results from ChEMBL document CHEMBL1146794, “Novel delta2-isoxazolines as group II phospholipase A2 inhibitors” (Bioorg Med Chem Lett, 2004).

Legend:
[1] = Inhibitory activity against group II Phospholipase A2 (PLA2) from Vipera russelli russelli venom; parameters: species or system Daboia russelii russelii
[2] = Compound (2.5 uM) was tested for edema inducing activity of group II PLA2 (1 ug) was determined in mice footpads; format: functional, Daboia russelii russelii

Row | SMILES | IC50 [1] [nM] | Edema ratio [2]
1 | CCCCc1nc(C2=NOC(C(=O)OCC)C2)c(Cl)[nH]1 (stereo unspecified) | 86.2 | 116
2 | CCCCc1nc(C2=NOC(c3ccccc3)C2)c(Cl)[nH]1 (stereo unspecified) | 142 | 
3 | CCCCc1nc(C2=NOC(C(=O)OC)C2)c(Cl)[nH]1 (stereo unspecified) | 250 | 
4 | CCCCc1nc(C2=NOC(CC(=O)OC)C2)c(Cl)[nH]1 (stereo unspecified) | 209 | 
5 | CCCCc1nc(C2=NOC(CO)C2)c(Cl)[nH]1 (stereo unspecified) | 152 | 
6 | CCCCc1nc(C2=NOC(C(=O)Oc3ccccc3)C2)c(Cl)[nH]1 (stereo unspecified) | 195 | 
7 | CCCCc1nc(C2=NOC(C#N)C2)c(Cl)[nH]1 (stereo unspecified) | 96.4 | 120
8 | C[C@H]1[C@H](C)CC[C@]2(C(=O)O)CC[C@]3(C)C(=CC[C@@H]4[C@@]5(C)CC[C@H](O)C(C)(C)[C@@H]5CC[C@]43C)[C@H]12 [URSOLIC ACID] | 2.5 | 102
